According to patent US20120149101A1, “METHODS AND KITS FOR REGULATING INTRACELLULAR TRAFFICKING OF A TARGET PROTEIN” (INSTITUT CURIE, priority 2009, published 2012):

Columns and labels:
[1] = molecular target: T1, interaction between SBP and core streptavidin (Streptomyces avidinii, UniProt P22629); experiment: RUSH^C[ID]: release of the reporter TMD22 from the hook TMD17-streptavidin; format: cell-based, human; conditions: upon biotin addition; cytoplasmic topology
T1 construct: the FRAP domain is replaced by Core streptavidin which was amplified by PCR; expressed in transfected cells; host or cells: HeLa cells, transient transfection of the hook-IRES-reporter plasmid
Protocol: (§1) Hela cells were grown at 37° C. in DMEM (Invitrogen) supplemented with L-glutamine, Sodium Pyruvate and 10% Fetal Calf Serum. For transient transfection, cells were plated on coverslips in 150-mm culture dishes and transfected with 25 μg of the plasmid hook-IRES-reporter using the calcium phosphate precipitation method, in presence of 25 mM HEPES. After 4 hours, cells were washed out with fresh medium and incubated overnight in presence of 3.1 nM Rapamycin (Sigma). Then cells were washed out 3 times with medium, and incubated in prewarmed medium with 3.3 μM FK506 (Cayman) and […] cycloheximide (CHX) for several time points. For each time point, 1 mL of medium containing FK506 and CHX was added into a well of a 12-well plate. Then cells were fixed with 4% PAF and processed for fluorescent microscopy. In the streptavidin/SBP set-up, transfection is done similarly but no addition is done when washing the cells after transfection. After 1-hours, biotin (10 μM) is added to induce reporter release. Then cells are then processed as in the MD set-up.
Cells were fixed in paraformaldehyde 3% for 15 min, washed in PBS (Phosphate Buffer Saline) and free aldehydes were quenched in NH4Cl 50 mM for 5 min. […]

[2] = molecular target: T2, interaction between SBP-Tag and Streptavidin (Streptomyces avidinii, UniProt P22629, L133T/T100R/V149R/V79T); experiment: RUSH^L[ID]: release of SBP-tagged reporters from the hook Ii-Core streptavidin, by immunofluorescence and time-lapse imaging; format: cell-based, human
T2 construct: expressed in transfected cells; host or cells: HeLa cells, transient transfection of the hook-IRES-reporter plasmid
Protocol: The Reporter ST-SBP-GFP is retained in the ER in cells expressing the hook Ii-Core streptavidin. Biotin is added at time 00:00 (min sec) and the release of the reporter is followed by time-lapse fluorescent imaging using a spinning disk equipped confocal microscope at 37° C. The Reporter starts to be visible in the Golgi apparatus in a very short time (9:30) and labels massively the Golgi apparatus by 30 minutes.
The Reporter SBP-GFP-Ecadherin is retained in the ER in cells expressing the hook Ii-Core streptavidin. Biotin is added at time 00:00 (min:sec) and the release of the reporter is followed by time-lapse fluorescent imaging using a spinning disk equipped confocal microscope at 37° C. The Reporter is visualized using GFP as a detection domain. Significant quantities of the reporter are visible in the Golgi apparatus from 03:30 and continue to increase. The reporter starts to be visible at the plasma membrane around 30:00. Note that transport intermediates (in the form of punctuate staining) are visible at early (ER to Golgi) and late (Golgi to plasma membrane) time points.
as §1
Cells were fixed in paraformaldehyde 3% for 15 min, washed in PBS (Phosphate Buffer Saline) and free aldehydes were quenched in NH4Cl 50 mM for 5 min. Cells were then permeabilized in PBS containing Bovine Serum Albumine (BSA 0.5%) and Saponine (Sapo 0.05%) [PBS/BSA/Sapo] for 20 min and incubated with primary antibodies (human anti-Giantin, Nizak et al. 2003, Moutel et al., 2009) in the same buffer for 30 min Cells were washed in PBS and incubated in PBS/BSA/Sapo with fluorescently labelled secondary antibodies (Jackson Immunoresearch) for 20 min Nuclei were counter-stained with DAPI (4′,6-Diamidino-2-phenylindole, Sigma-Aldrich). Cells were finally washed in PBS before being mounted in Mowiol (Sigma-Aldrich) and observed by fluorescent microscopy.
A hook was constructed using the ER localized Ii33 fused to monomeric Streptavidin (SEQ ID NO:3) (FRAP of the construct from Example 1 is replaced by monomeric Streptavidin). The reporter was the Golgi localization domain of Sialyl Transferase as used in Example 1. The Hook and reporter were co-expressed in cells and the two domains, streptavidin and SBP-tag interact by default, preventing ST transport to the Golgi apparatus. Release of ST was achieved using moderate concentration of free biotin (around 1-10 μM).

[3] = upon biotin addition, surface anti-GFP

T2 sequence (P22629 25-183 V79T/T100R/L133T/V149R limits assumed): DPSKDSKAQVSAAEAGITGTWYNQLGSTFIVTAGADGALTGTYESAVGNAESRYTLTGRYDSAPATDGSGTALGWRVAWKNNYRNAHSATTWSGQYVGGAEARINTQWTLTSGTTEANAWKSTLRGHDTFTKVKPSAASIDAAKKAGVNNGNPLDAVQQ
T1 sequence (P22629 with tags, fused parts or gaps): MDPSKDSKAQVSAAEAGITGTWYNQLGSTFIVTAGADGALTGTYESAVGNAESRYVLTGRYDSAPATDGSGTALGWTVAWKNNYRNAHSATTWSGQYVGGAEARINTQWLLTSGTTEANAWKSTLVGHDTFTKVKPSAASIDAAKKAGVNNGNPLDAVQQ

O=C(O)CCCC[C@@H]1SC[C@@H]2NC(=O)N[C@@H]21 [Biotin, D-Biotin]
release of reporter TMD22 toward the plasma membrane [1]: release was observed | time by which reporter labels massively the Golgi apparatus ([2]; reporter ST-SBP-GFP, biotin added at 00:00, 37° C.): ≤ 30 min | concentration of free biotin achieving release of ST ([2]; reporter ST, hook Ii33-Streptavidin): 1 to 10 µM | release of reporters ST-SBP-GFP and ManII-SBP-mCherry to the Golgi apparatus ([2]; upon addition of biotin): they both reach the Golgi apparatus | release of reporter SBP-GFP-Ecadherin to the plasma membrane [2, 3]: the reporter is released and reaches its target plasma membrane compartment | release of reporter SBP-GFP-VSV-G to the plasma membrane [2, 3]: the reporter is released and reaches its target plasma membrane compartment
